Test system: CD34+ cells isolated from donor non-mobilized peripheral blood (CD133+ and CD90+ cells)
Assay: Relative expansive effect of SF1670 derivatives, fold change days 2 to 7, non-mobilized peripheral blood CD34+ cells (Example 21)
Format: cell-based, human
Conditions: fold change days 2 to 7 normalized to basic and +SF (500 nM SF1670) controls
Procedure: CD34+ cells were isolated from donor peripheral blood as described in Example 20. Isolated CD34+ cells were incubated in an in vitro culture media of Alpha MEM without phenol red, 10% (v/v) heat inactivated fetal bovine serum (FBS). When testing the substituted derivatives of 9,10-dihydrophenathrene and phenanthrene (+Derivative conditions), two internal controls were used: a positive control (+SF conditions) and a baseline control (i.e, basic conditions (“cytokines only”)). The media components and concentrations used for the compounds tested are described in Table 6. The culture also included an antibiotic solution that includes penicillin, streptomycin, and amphotericin B to avoid contamination. Controls were included because the amount of expansion in samples obtained varies from individual to individual.
Cultures were incubated at 3% oxygen (controlled by nitrogen) and 5% CO2.
Small molecule components were added separately and fresh each time the media needs to be refreshed. Cytokines can be stored together. Media renewal should occur at least every few days.
On the days indicated one-half of the volume of the cell culture was removed for data analysis (flow cytometry using a BD FACS ARIA II). The culture volume was replenished with fresh media according to the conditions tested. The data reported accounts for the dilution factor introduced in this procedure.
Separate experiments were performed for each compound tested (Compound 1.001-1.012).
Table 7, below, summarizes the relative expansive effect of Compound 1.001 to 1.012 (sample compounds) at the indicated concentration. The data in Table 7 is reported as the relative expansive effect. The relative expansive effect is a normalized value of the fold changes shown in each of the figures. It is calculated as shown below: […]

Compound: O=C1C(=O)c2cc(NC(=O)C(Cl)(Cl)Cl)ccc2-c2ccccc21 [Compound 1.009, 2,2,2-trichloro-N-(9,10-dioxo-9,10-dihydrophenanthren-2-yl)acetamide]
- CD90 effect (relative expansive effect of CD90+ cells) (0.5 μM sample compound): +++ (0.55 ≤ x < 0.9)
- CD133 effect (relative expansive effect of CD133+ cells) (0.5 μM sample compound): ++ (0.2 ≤ x < 0.55)

Compound: CCC(C)(C)C(=O)Nc1ccc2c(c1)C(=O)C(=O)c1ccccc1-2 [Compound 1.008, N-(9,10-dioxo-9,10-dihydrophenanthren-2-yl)-2,2-dimethylbutanamide]
- CD90 effect (relative expansive effect of CD90+ cells) (1 μM sample compound): ++ (0.2 ≤ x < 0.55)
- CD133 effect (relative expansive effect of CD133+ cells) (1 μM sample compound): ++ (0.2 ≤ x < 0.55)

Compound: CC(C)(C)CC(=O)Nc1ccc2c(c1)C(=O)C(=O)c1ccccc1-2 [Compound 1.004, N-(9,10-dioxo-9,10-dihydrophenanthren-2-yl)-3,3-dimethylbutanamide]
- CD90 effect (relative expansive effect of CD90+ cells) (0.125 μM sample compound): ++ (0.2 ≤ x < 0.55)
- CD133 effect (relative expansive effect of CD133+ cells) (0.125 μM sample compound): + (x < 0.2)

Compound: CCCC(C)(C)C(=O)Nc1ccc2c(c1)C(=O)C(=O)c1ccccc1-2 [Compound 1.010, N-(9,10-dioxo-9,10-dihydrophenanthren-2-yl)-2,2-dimethylpentanamide]
- CD90 effect (relative expansive effect of CD90+ cells) (0.125 μM sample compound): +++ (0.55 ≤ x < 0.9)
- CD133 effect (relative expansive effect of CD133+ cells) (0.125 μM sample compound): + (x < 0.2)

Compound: CC(C)(C)C(=O)CNc1ccc2c(c1)C(=O)C(=O)c1ccccc1-2 [Compound 1.002, 2-((3,3-dimethyl-2-oxobutyl)amino)phenanthrene-9,10-dione]
- CD90 effect (relative expansive effect of CD90+ cells) (1 μM sample compound): ++ (0.2 ≤ x < 0.55)
- CD133 effect (relative expansive effect of CD133+ cells) (1 μM sample compound): + (x < 0.2)

Compound: O=C1C(=O)c2ccc(NC(=O)C(Cl)(Cl)Cl)cc2-c2ccccc21 [Compound 1.011, 2,2,2-trichloro-N-(9,10-dioxo-9,10-dihydrophenanthren-3-yl)acetamide]
- CD90 effect (relative expansive effect of CD90+ cells) (0.25 μM sample compound): ++++ (0.9 ≤ x < 1.25)
- CD133 effect (relative expansive effect of CD133+ cells) (0.25 μM sample compound): ++ (0.2 ≤ x < 0.55)

Compound: Nc1ccc2c(c1)C(=O)C(=O)c1cc(NC(=O)CC(=O)O)ccc1-2 [Compound 1.003, 3-((7-amino-9,10-dioxo-9,10-dihydrophenanthren-2-yl)amino)-3-oxopropanoic acid]
- CD90 effect (relative expansive effect of CD90+ cells) (0.125 μM sample compound): ++ (0.2 ≤ x < 0.55)
- CD133 effect (relative expansive effect of CD133+ cells) (0.125 μM sample compound): + (x < 0.2)

Compound: CC(C)(C)C(=O)Nc1ccc2c(c1)C(=O)C(=O)c1cc(N)ccc1-2 [Compound 1.007, N-(7-amino-9,10-dioxo-9,10-dihydrophenanthren-2-yl)pivalamide]
- CD90 effect (relative expansive effect of CD90+ cells) (1 μM sample compound): ++ (0.2 ≤ x < 0.55)
- CD133 effect (relative expansive effect of CD133+ cells) (1 μM sample compound): ++ (0.2 ≤ x < 0.55)

Compound: CC(=O)Oc1c(OC(C)=O)c2cc(NC(=O)C(C)(C)C)ccc2c2ccccc12 [Compound 1.012, 2-pivalamidophenanthrene-9,10-diyl Diacetate]
- CD90 effect (relative expansive effect of CD90+ cells) (0.5 μM sample compound): +++++ (1.25 ≤ x)
- CD133 effect (relative expansive effect of CD133+ cells) (0.5 μM sample compound): ++++ (0.9 ≤ x < 1.25)

Compound: CCCCCCCCCC(=O)Nc1ccc2c(c1)C(=O)C(=O)c1ccccc1-2 [Compound 1.005, N-(9,10-dioxo-9,10-dihydrophenanthren-2-yl)decanamide]
- CD90 effect (relative expansive effect of CD90+ cells) (2 μM sample compound): ++ (0.2 ≤ x < 0.55)
- CD133 effect (relative expansive effect of CD133+ cells) (2 μM sample compound): + (x < 0.2)

Compound: CC(=O)Nc1ccc2c(c1)C(=O)C(=O)c1ccccc1-2 [Compound 1.006, N-(9,10-dioxo-9,10-dihydrophenanthren-2-yl)acetamide]
- CD90 effect (relative expansive effect of CD90+ cells) (0.5 μM sample compound): ++ (0.2 ≤ x < 0.55)
- CD133 effect (relative expansive effect of CD133+ cells) (0.5 μM sample compound): + (x < 0.2)

Compound: CC(C)(C)NC(=O)c1ccc2c(c1)C(=O)C(=O)c1ccccc1-2 [Compound 1.001, N-(tert-butyl)-9,10-dioxo-9,10-dihydrophenanthrene-2-carboxamide]
- CD90 effect (relative expansive effect of CD90+ cells) (0.5 μM sample compound): ++ (0.2 ≤ x < 0.55)
- CD133 effect (relative expansive effect of CD133+ cells) (0.5 μM sample compound): + (x < 0.2)

Reference: patent US20200155609A1, “COMPOSITIONS AND METHODS OF MAKING EXPANDED HEMATOPOIETIC STEM CELLS USING PTEN INHIBITORS” (Transfusion Health LLC, priority 2017, published 2020)
